Measurements taken from the Kinase Knowledgebase extract (Sharma et al. 2016).

Biological target: PIK3CA (human) (UniProt P42336)
Assay: Inhibition of PIK3CA Kinase Activity

Chain of PIK3CA (human) (P42336 whole entry, looked up): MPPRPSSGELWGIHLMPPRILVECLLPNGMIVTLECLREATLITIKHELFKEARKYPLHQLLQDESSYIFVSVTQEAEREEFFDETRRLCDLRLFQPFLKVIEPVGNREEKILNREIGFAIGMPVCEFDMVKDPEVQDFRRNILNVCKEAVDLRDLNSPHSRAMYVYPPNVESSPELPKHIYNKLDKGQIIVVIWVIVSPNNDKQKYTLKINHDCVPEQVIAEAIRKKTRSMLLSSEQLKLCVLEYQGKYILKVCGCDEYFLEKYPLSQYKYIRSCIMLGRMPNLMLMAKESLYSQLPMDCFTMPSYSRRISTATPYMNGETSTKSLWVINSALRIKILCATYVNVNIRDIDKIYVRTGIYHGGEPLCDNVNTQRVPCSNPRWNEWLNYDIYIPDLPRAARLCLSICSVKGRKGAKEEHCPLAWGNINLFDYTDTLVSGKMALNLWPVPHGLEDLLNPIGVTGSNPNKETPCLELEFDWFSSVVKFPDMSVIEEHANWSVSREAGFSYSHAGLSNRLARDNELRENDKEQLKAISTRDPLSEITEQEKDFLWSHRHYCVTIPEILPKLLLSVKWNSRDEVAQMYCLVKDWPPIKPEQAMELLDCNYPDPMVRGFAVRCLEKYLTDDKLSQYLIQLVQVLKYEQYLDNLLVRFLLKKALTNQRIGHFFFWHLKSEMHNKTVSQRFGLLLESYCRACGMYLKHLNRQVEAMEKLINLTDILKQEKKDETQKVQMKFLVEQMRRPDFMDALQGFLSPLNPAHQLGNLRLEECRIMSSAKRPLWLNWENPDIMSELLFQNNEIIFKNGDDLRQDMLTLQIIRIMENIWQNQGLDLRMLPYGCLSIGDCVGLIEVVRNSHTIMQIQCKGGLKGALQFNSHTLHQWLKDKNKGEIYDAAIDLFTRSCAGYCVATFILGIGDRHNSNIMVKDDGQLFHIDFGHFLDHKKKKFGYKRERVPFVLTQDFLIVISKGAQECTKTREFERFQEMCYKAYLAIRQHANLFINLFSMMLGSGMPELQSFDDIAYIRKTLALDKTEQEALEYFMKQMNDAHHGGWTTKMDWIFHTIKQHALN

Structure (SMILES): Nc1ncc(-c2nc(N3CCOCC3)nc3c2ncn3C2CCN(C(=O)c3ccccc3)C2)cn1 (stereo not drawn)
- IC50: < 1000 nM

Structure (SMILES): N#CCn1cnc2c(-c3cccc(O)c3)nc(N3CCOCC3)nc21
- IC50: < 1000 nM

Structure (SMILES): O=C(Nc1ccc(Cl)cc1)N1CCC(n2cnc3c(-c4cccc5[nH]ccc45)nc(N4CCOCC4)nc32)CC1
- IC50: < 1000 nM

Structure (SMILES): CS(=O)(=O)N1CCN(C(=O)Cn2cnc3c(-c4cccc(O)c4)nc(N4CCOCC4)nc32)CC1
- IC50: < 1000 nM

Structure (SMILES): Oc1cccc(-c2nc(N3CCOCC3)nc3c2ncn3C2CCCCO2)c1 (stereo not drawn)
- IC50: < 1000 nM

Structure (SMILES): CC1CCC(n2cnc3c(-c4cccc(O)c4)nc(N4CCOCC4)nc32)CC1 (stereo not drawn)
- IC50: < 1000 nM

Structure (SMILES): Nc1ncc(-c2nc(N3CCOCC3)nc3[nH]cnc23)cn1
- IC50: < 1000 nM

Structure (SMILES): CC(C)C(C)n1cnc2c(-c3cnc(N)nc3)nc(N3CCOCC3)nc21 (stereo not drawn)
- IC50: < 1000 nM

Structure (SMILES): CC(C)(C)OC(=O)N1CCC(n2cnc3c(-c4cnc(N)nc4)nc(N4CCOCC4)nc32)CC1
- IC50: < 1000 nM

Structure (SMILES): Oc1cccc(-c2nc(N3CCOCC3)nc3c2ncn3Cc2ccccc2)c1
- IC50: < 1000 nM

Structure (SMILES): Oc1cccc(-c2nc(N3CCOCC3)nc3c2ncn3C2CCCC2)c1
- IC50: < 1000 nM

Structure (SMILES): CCC(C)n1c(SC)nc2c(-c3cccc(O)c3)nc(N3CCOCC3)nc21 (stereo not drawn)
- IC50: < 1000 nM

Structure (SMILES): COc1cc(Cn2cnc3c(-c4cccc(O)c4)nc(N4CCOCC4)nc32)cc(OC)c1
- IC50: < 1000 nM

Structure (SMILES): Nc1ncc(-c2nc(N3CCOCC3)nc3c2ncn3C2CCCC2)cn1
- IC50: < 1000 nM

Structure (SMILES): CC(C)C(C)n1cnc2c(-c3cccc4[nH]ccc34)nc(N3CCOCC3)nc21 (stereo not drawn)
- IC50: < 1000 nM

Structure (SMILES): CS(=O)(=O)N1CCC(n2cnc3c(-c4cccc5[nH]ccc45)nc(N4CCOCC4)nc32)CC1
- IC50: < 1000 nM

Structure (SMILES): OCc1cccc(-c2nc(N3CCOCC3)nc3c2ncn3Cc2ccccc2)c1
- IC50: < 1000 nM

Structure (SMILES): CCC(C)n1c(NC(C)C)nc2c(-c3cccc(O)c3)nc(N3CCOCC3)nc21 (stereo not drawn)
- IC50: < 1000 nM

Structure (SMILES): CC(C)Cn1cnc2c(-c3cccc4[nH]ccc34)nc(N3CCOCC3)nc21
- IC50: < 1000 nM

Structure (SMILES): CC(C1CC1)n1cnc2c(-c3cccc4[nH]ccc34)nc(N3CCOCC3)nc21 (stereo not drawn)
- IC50: < 1000 nM

Structure (SMILES): Oc1cccc(-c2nc(N3CCOCC3)nc3c2ncn3CCOc2ccccc2)c1
- IC50: < 1000 nM

Structure (SMILES): COCC(C)n1cnc2c(-c3cnc(N)nc3OC)nc(N3CCOCC3)nc21 (stereo not drawn)
- IC50: < 1000 nM

Structure (SMILES): COCC(C)n1cnc2c(-c3cnc(N)nc3)nc(N3CCOCC3)nc21 (stereo not drawn)
- IC50: < 1000 nM

Structure (SMILES): COCC(C)n1cnc2c(-c3ccc(N)nc3)nc(N3CCOCC3)nc21 (stereo not drawn)
- IC50: < 1000 nM

Structure (SMILES): Oc1cccc(-c2nc(N3CCOCC3)nc3[nH]c(-c4cccs4)nc23)c1
- IC50: < 1000 nM

Structure (SMILES): O=C(CCN1CCCCC1)Nc1ccc(Cn2cnc3c(-c4cccc(O)c4)nc(N4CCOCC4)nc32)cc1
- IC50: < 1000 nM

Structure (SMILES): Oc1cccc(-c2nc(N3CCOCC3)nc3c2ncn3Cc2cc(F)cc(F)c2)c1
- IC50: < 1000 nM

Structure (SMILES): CCNc1nc2c(-c3cccc(O)c3)nc(N3CCOCC3)nc2n1C(C)CC (stereo not drawn)
- IC50: < 1000 nM
